Like-named read-outs stand apart in the source and are kept apart here.
Experiments:
[1] = tested on: chloroquine-sensitive P. falciparum (NF54); assay: Antimalarial activity in vitro, [3H]hypoxanthine incorporation; assay type: cell-based
CCRF-CEM = assay: NCI 60 cell line panel screen (SRB); assay type: cell-based, human; conditions: CCRF-CEM (Leukemia)
HL-60(TB) = assay: NCI 60 cell line panel screen (SRB); assay type: cell-based, human
MOLT-4 = tested on: MOLT-4
Procedure, shortened: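 Sulforhodamine B staining of TCA-fixed cellular protein was the read-out, following 48 h compound exposure at 37 °C. Plates were pre-incubated 24 h before dosing, and five concentrations (routinely 10^−4 to 10^−8 molar) were tested in duplicate with time-zero and untreated controls. Values derive from test/control percentage growth relative to time-zero mass.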

EKVX = assay: NCI 60 cell line panel screen (SRB); assay type: cell-based, human
NCI-H460 = assay: NCI 60 cell line panel screen (SRB); assay type: cell-based, human
NCI-H522 = assay: NCI 60 cell line panel screen (SRB); assay type: cell-based, human
COLO 205 = assay: NCI 60 cell line panel screen (SRB); assay type: cell-based, human
HCT-15 = assay: NCI 60 cell line panel screen (SRB); assay type: cell-based, human
SNB-19 = assay: NCI 60 cell line panel screen (SRB); assay type: cell-based, human
SK-MEL-2 = assay: NCI 60 cell line panel screen (SRB); assay type: cell-based, human
UACC-257 = assay: NCI 60 cell line panel screen (SRB); assay type: cell-based, human
OVCAR-5 = assay: NCI 60 cell line panel screen (SRB); assay type: cell-based, human
786-0 = assay: NCI 60 cell line panel screen (SRB); assay type: cell-based, human
ACHN = assay: NCI 60 cell line panel screen (SRB); assay type: cell-based, human
CAKI-1 = assay: NCI 60 cell line panel screen (SRB); assay type: cell-based, human
MCF7 = assay: NCI 60 cell line panel screen (SRB); assay type: cell-based, human
HS 578T = assay: NCI 60 cell line panel screen (SRB); assay type: cell-based, human

CC1CCC2C(C)C(CC(CO)CC3OC4OC5(C)CCC6C(C)CCC(C3C)C46OO5)OC3OC4(C)CCC1C32OO4 (stereo not drawn) [Compound 4, bis-trioxane primary alcohol] was tested, and the IC50 [1] was “below one nM”, the “antimalarial potency in vitro relative to artemisinin” value [1] was 10 times and the IC50 ([1]; Table I, NF54 strain, read-out: IC50) was 0.87 nM. The Log10LC50 (CCRF-CEM; LC50: PG=−50) was >−4.00 log10M, the Log10TGI50 (CCRF-CEM; TGI: PG=0) was −4.66 log10M and the Log10LC50 (HL-60(TB); HL-60(TB) (Leukemia), LC50: PG=−50) was −4.13 log10M. The Log10TGI50 (HL-60(TB); HL-60(TB) (Leukemia), TGI: PG=0) was −4.88 log10M, the Log10GI50 (HL-60(TB); Leukemia, HL-60(TB)) was −7.78 and the “concentration for cytotoxicity (percentage growth −50)” value (MOLT-4) was “greater than 10^−4 M”. The Log10GI50 (MOLT-4; Leukemia, MOLT-4) was −7.92, the Log10LC50 (MOLT-4; MOLT-4 (Leukemia), LC50: PG=−50) was >−4.00 log10M and the Log10TGI50 (MOLT-4; MOLT-4 (Leukemia), TGI: PG=0) was >−4.00 log10M. It also gave a Log10LC50 (EKVX; EKVX (Non-Small Cell Lung Cancer), LC50: PG=−50) of −4.36 log10M, a Log10TGI50 (EKVX; EKVX (Non-Small Cell Lung Cancer), TGI: PG=0) of −4.77 log10M and a Log10GI50 (EKVX; Non-Small Cell Lung Cancer, EKVX) of −7.12. The Log10LC50 (NCI-H460; NCI-H460 (Non-Small Cell Lung Cancer), LC50: PG=−50) was −4.19 log10M, the Log10TGI50 (NCI-H460; NCI-H460 (Non-Small Cell Lung Cancer), TGI: PG=0) was −4.71 log10M and the Log10GI50 (NCI-H460; Non-Small Cell Lung Cancer, NCI-H460) was −7.35. The Log10TGI50 (NCI-H522; NCI-H522 (Non-Small Cell Lung Cancer), TGI: PG=0) was −4.88 log10M, the Log10LC50 (NCI-H522; NCI-H-522 (Non-Small Cell Lung Cancer), LC50: PG=−50) was −4.40 log10M and the Log10GI50 (NCI-H522; Non-Small Cell Lung Cancer, NCI-H522) was −7.53. The Log10LC50 (COLO 205; COLO 205 (Colon Cancer), LC50: PG=−50) was −4.50 log10M, the Log10TGI50 (COLO 205; COLO 205 (Colon Cancer), TGI: PG=0) was −6.43 log10M and the Log10GI50 (COLO 205; Colon Cancer, COLO 205) was <−8.00. For the same compound, the Log10GI50 (HCT-15; Colon Cancer, HCT-15) was <−8.00, the Log10LC50 (HCT-15; HCT-15 (Colon Cancer), LC50: PG=−50) was −4.06 log10M and the Log10TGI50 (HCT-15; HCT-15 (Colon Cancer), TGI: PG=0) was −4.78 log10M. It also gave a Log10GI50 (SNB-19; CNS Cancer, SNB-19) of −4.88, a Log10LC50 (SNB-19; SNB-19 (CNS Cancer), LC50: PG=−50) of −4.13 log10M and a Log10TGI50 (SNB-19; SNB-19 (CNS Cancer), TGI: PG=0) of −4.50 log10M. It also gave a Log10GI50 (SK-MEL-2; Melanoma, SK-MEL-2) of −7.33, a Log10LC50 (SK-MEL-2; SK-MEL2 (Melanoma), LC50: PG=−50) of −4.46 log10M and a Log10TGI50 (SK-MEL-2; SK-MEL-2 (Melanoma), TGI: PG=0) of −4.92 log10M. The Log10GI50 (UACC-257; Melanoma, UACC-257) was −7.31, the Log10LC50 (UACC-257; UACC-257 (Melanoma), LC50: PG=−50) was −4.30 log10M and the Log10TGI50 (UACC-257; UACC-257 (Melanoma), TGI: PG=0) was −4.71 log10M. It also gave a Log10LC50 (OVCAR-5; OVCAR-5 (Ovarian Cancer), LC50: PG=−50) of −4.54 log10M, a Log10TGI50 (OVCAR-5; OVCAR-5 (Ovarian Cancer), TGI: PG=0) of −6.42 log10M and a Log10GI50 (OVCAR-5; Ovarian Cancer, OVCAR-5) of −7.79. The Log10LC50 (786-0; 786-0 (Renal Cancer), LC50: PG=−50) was −4.31 log10M, the Log10TGI50 (786-0; 786-0 (Renal Cancer), TGI: PG=0) was −4.83 log10M and the Log10GI50 (786-0; Renal Cancer, 786-0) was −7.48. The Log10LC50 (ACHN; ACHN (Renal Cancer), LC50: PG=−50) was −4.30 log10M, the Log10TGI50 (ACHN; ACHN (Renal Cancer), TGI: PG=0) was −4.76 log10M and the Log10GI50 (ACHN; Renal Cancer, ACHN) was −7.12. The Log10LC50 (CAKI-1; CAKI-1 (Renal Cancer), LC50: PG=−50) was −4.38 log10M, the Log10TGI50 (CAKI-1; CAKI-1 (Renal Cancer), TGI: PG=0) was −4.84 log10M and the Log10GI50 (CAKI-1; Renal Cancer, CAKI-1) was −7.05. The Log10GI50 (MCF7; Breast Cancer, MCF7) was −7.22, the Log10LC50 (MCF7; MCF7 (Breast Cancer), LC50: PG=−50) was −4.03 log10M and the Log10TGI50 (MCF7; MCF7 (Breast Cancer), TGI: PG=0) was −4.67 log10M. For the same compound, the Log10GI50 (HS 578T; Breast Cancer, HS 578T) was −4.82, the Log10LC50 (HS 578T; HS 578T (Breast Cancer), LC50: PG=−50) was >−4.00 log10M and the Log10TGI50 (HS 578T; HS 578T (Breast Cancer), TGI: PG=0) was >−4.00 log10M.
